Among the data in ChEMBL document CHEMBL4400567, “Discovery of novel selective Janus kinase 2 (JAK2) inhibitors bearing a 1H-pyrazolo[3,4-d]pyrimidin-4-amino scaffold” (Bioorg Med Chem, 2019) are IC50 values, retold here.

In assay [1] the target is Tyrosine-protein kinase JAK1 (Homo sapiens, UniProt P23458). The format is ADME.
Assay [2] can be described thus: cells. In kind it is ADME, cell-based. The settings on record: Homo sapiens, NK92, 48 h.
Description: Cytotoxicity against human NK92 cells harboring JAK1/3 measured after 48 hrs by CellTiter-Glo assay
Assay [3] deals with THP-1. Briefly: cells. In kind it is ADME, cell-based. Particulars: Homo sapiens.
Description: Cytotoxicity against IL-4 induced JAK1/3 activated human THP1 cells preincubated for 1 hr followed by IL-4 induction and measured after 1 hr by CellTiter-Glo assay
Assay [4] concerns TF-1. Briefly: cells. In kind it is functional, cell-based. Particulars: Homo sapiens, TF-1, 48 h.
Description: Antiproliferative activity against JAK2 wild-type human TF1 cells measured after 48 hrs by CellTiter-Glo assay
The test system of assay [5] is HEL. Briefly: cells. In kind it is functional, cell-based. Particulars: Homo sapiens, 48 h.
Description: Antiproliferative activity against human HEL cells harboring JAK2 V617F mutant measured after 48 hrs by CellTiter-Glo assay

Sequence of Tyrosine-protein kinase JAK1 (P23458 whole entry): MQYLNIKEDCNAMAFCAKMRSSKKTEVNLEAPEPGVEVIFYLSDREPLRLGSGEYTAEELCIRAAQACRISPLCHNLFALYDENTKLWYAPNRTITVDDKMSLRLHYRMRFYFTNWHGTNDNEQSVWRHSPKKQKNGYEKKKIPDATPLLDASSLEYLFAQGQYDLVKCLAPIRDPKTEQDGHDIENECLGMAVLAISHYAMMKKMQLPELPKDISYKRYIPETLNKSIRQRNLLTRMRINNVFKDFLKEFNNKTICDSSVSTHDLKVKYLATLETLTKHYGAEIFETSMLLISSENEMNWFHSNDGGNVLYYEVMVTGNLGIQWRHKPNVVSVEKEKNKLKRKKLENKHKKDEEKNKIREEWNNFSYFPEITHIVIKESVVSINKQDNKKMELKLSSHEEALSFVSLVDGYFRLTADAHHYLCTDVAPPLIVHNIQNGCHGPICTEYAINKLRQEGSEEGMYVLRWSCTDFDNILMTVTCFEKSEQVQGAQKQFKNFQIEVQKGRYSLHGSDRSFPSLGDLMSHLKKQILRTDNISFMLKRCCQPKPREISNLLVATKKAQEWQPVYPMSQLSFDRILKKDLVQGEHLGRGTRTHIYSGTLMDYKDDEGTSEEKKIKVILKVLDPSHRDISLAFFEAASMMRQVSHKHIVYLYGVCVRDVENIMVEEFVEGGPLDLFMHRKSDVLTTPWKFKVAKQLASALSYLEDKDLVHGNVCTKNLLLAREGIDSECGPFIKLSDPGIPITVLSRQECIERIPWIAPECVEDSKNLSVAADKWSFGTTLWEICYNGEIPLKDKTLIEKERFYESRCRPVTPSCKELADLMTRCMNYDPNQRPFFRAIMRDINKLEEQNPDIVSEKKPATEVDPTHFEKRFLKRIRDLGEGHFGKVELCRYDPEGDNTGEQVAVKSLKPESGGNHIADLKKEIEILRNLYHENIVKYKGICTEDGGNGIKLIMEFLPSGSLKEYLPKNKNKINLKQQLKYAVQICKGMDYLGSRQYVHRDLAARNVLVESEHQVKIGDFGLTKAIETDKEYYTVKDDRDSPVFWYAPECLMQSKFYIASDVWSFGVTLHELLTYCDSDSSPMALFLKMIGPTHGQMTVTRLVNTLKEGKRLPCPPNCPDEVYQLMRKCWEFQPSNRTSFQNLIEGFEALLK

On to `C=CC(=O)N1CCCC(n2nc(-c3cc(C=O)n(C)n3)c3c(N)ncnc32)C1` (stereo not given), for which the IC50 in assay [1] was determined as 0.215 µM; in assay [2], 23.6 µM; in assay [3], 28.8 µM; in assay [4], 7.1 µM; in assay [5] it was 8.2 µM.
On to `C=CC(=O)N1CCC(n2nc(-c3cc(C(C)(C)O)n(C)n3)c3c(N)ncnc32)C1` (stereo not given), for which the IC50 in assay [1] was 0.104 µM; in assay [2] it was 22.1 µM; in assay [3], 18.5 µM; in assay [4], 2 µM; in assay [5] it was 4.7 µM.
